≈ marks a conversion by molar mass, not a printed value. Where a SMILES comes first, the peptide text is derived from it. Bridges are numbered along the chain shown (N, C = ends). [ ]: non-standard residue; d: D form. The star is where a group is joined. X1 = CC[C@H](C)CCCCC(=O)*; Dab = NCC[C@H](N)C(=O)O
How the values were obtained:
[1] = tested on: Gram-negative bacteria; assay: MICs against Gram-negative strains (geometric mean, range); format: cell-based; conditions: for geometric mean MIC: read-out: MBC (GM), geometric mean of MICs, Gram (−)
Protocol: (§1) The minimum inhibitory concentration (MIC) was measured using a broth microdilution method to determine the in vitro antimicrobial activity of the peptides. Bacteria were inoculated into MHB and incubated overnight at 37 °C until the bacteria were in log phase growth. Next, we corrected the bacterial concentration to approximately 1 × 10^5 CFU/mL using MHB. The peptides were added to 96-well plates containing 0.01% acetic acid and 0.2% bovine serum albumin at final concentrations ranging from 0.25 to 128 μM. After incubation at 37 °C for 24 h, the absorbance was measured at 492 nm using a microplate reader (Tecan GENios F129004, Tecan, Austria). Broth containing microbes and […] were used as positive and negative controls, respectively. The lowest peptide concentration with no increase in absorbance compared to that of the negative control was defined as the MIC. The experiments were independently performed three times.

[2] = tested on: S. epidermidis ATCC12228; assay: microbe, parasite or virus in culture
Protocol: as §1

[3] = tested on: E. coli K88; assay: microbe, parasite or virus in culture
Protocol: as §1

[4] = tested on: methicillin-resistant S. aureus ATCC43300; assay: microbe, parasite or virus in culture
Protocol: as §1

[5] = tested on: E. coli K99; assay: microbe, parasite or virus in culture
Protocol: as §1

[6] = tested on: E. coli UB1005; assay: microbe, parasite or virus in culture
Protocol: as §1

[7] = tested on: S. pullorum C7913; assay: microbe, parasite or virus in culture; conditions: 24 h
Protocol: as §1

[8] = tested on: P. aeruginosa ATCC27853; assay: microbe, parasite or virus in culture
Protocol: as §1

[9] = tested on: S. aureus ATCC29213; assay: microbe, parasite or virus in culture
Protocol: as §1

[10] = tested on: E. coli ATCC25922; assay: microbe, parasite or virus in culture
Protocol: as §1

[11] = tested on: Gram-positive and Gram-negative bacteria; conditions: all strains; 256 μM used where no activity at 128 μM
Protocol: as §1

[12] = tested on: Gram-positive bacteria; conditions: Gram-positive strains; 256 μM used where no activity at 128 μM
Protocol: as §1

[13] = Staphylococcus epidermidis, ATCC12228, 24 h
[14] = Staphylococcus aureus, ATCC43300, 24 h
[15] = Pseudomonas aeruginosa, ATCC27853, 24 h
[16] = Staphylococcus aureus, ATCC29213, 24 h
[17] = Escherichia coli, ATCC25922, 24 h

CN[C@H](CC(C)C)C(=O)N[C@H]1C(=O)N[C@@H](CC(N)=O)C(=O)N[C@H]2C(=O)N[C@H]3C(=O)N[C@H](C(=O)N[C@H](C(=O)O)c4cc(O)cc(O)c4-c4cc3ccc4O)[C@H](O)c3ccc(c(Cl)c3)Oc3cc2cc(c3O[C@@H]2O[C@H](CO)[C@@H](O)[C@H](O)[C@H]2O[C@H]2C[C@](C)(N)[C@H](O)[C@H](C)O2)Oc2ccc(cc2Cl)[C@H]1O [Vancomycin]
geometric mean MIC [1]: 11.3 µM | MIC [2, 13]: 0.5 µM (≈ 0.725 µg/mL) | MIC ([3]; Escherichia coli, K88, 24 h): 2 µM (≈ 2.9 µg/mL) | MIC [4, 14]: 0.5 µM (≈ 0.725 µg/mL) | MIC ([5]; Escherichia coli, K99, 24 h): 4 µM (≈ 5.8 µg/mL) | MIC ([6]; Escherichia coli, UB1005, 24 h): 16 µM (≈ 23.2 µg/mL) | MIC ([7]; Salmonella enterica, PULLORUM): 8 µM (≈ 11.6 µg/mL) | MIC [8, 15]: > 128 µM | MIC [9, 16]: 0.5 µM (≈ 0.725 µg/mL) | MIC [10, 17]: 8 µM (≈ 11.6 µg/mL)

CC[C@H](C)CCCCC(=O)N[C@@H](CCN)C(=O)N[C@H](C(=O)N[C@@H](CCN)C(=O)N[C@H]1CCNC(=O)[C@H]([C@@H](C)O)NC(=O)[C@H](CCN)NC(=O)[C@H](CCN)NC(=O)[C@H](CC(C)C)NC(=O)[C@@H](Cc2ccccc2)NC(=O)[C@H](CCN)NC1=O)[C@@H](C)O [Polymyxin B, polymyxin B] (X1-[Dab]T[Dab][Dab][Dab][dF]L[Dab][Dab]T; lactam 4-C (inferred); N-terminus assumed)
MBC (GM), geometric mean of MICs, Gram (+,−) [11]: 4 µM | MBC (GM), geometric mean of MICs, Gram (+) [12]: 50.8 µM | MBC (GM), geometric mean of MICs, Gram (−) ([1]; Gram-negative strains, 256 μM used where no activity at 128 μM): 1.12 µM | MIC ([2]; S.epidermidis 12228, MHB, about 1 × 10^5 CFU/mL, 37 °C, 24 h, three independent experiments): 32 µM (≈ 38.5 µg/mL) | MIC ([3]; E. coli K88, MHB, about 1 × 10^5 CFU/mL, 37 °C, 24 h, three independent experiments): 0.5 µM (≈ 0.602 µg/mL) | MIC ([4]; S.aureus 43300 (methicillin-resistant), MHB, about 1 × 10^5 CFU/mL, 37 °C, 24 h, three independent experiments): 64 µM (≈ 77 µg/mL) | MIC ([5]; E. coli K99, MHB, about 1 × 10^5 CFU/mL, 37 °C, 24 h, three independent experiments): 1 µM (≈ 1.2 µg/mL) | MIC ([6]; E. coli UB1005, MHB, about 1 × 10^5 CFU/mL, 37 °C, 24 h, three independent experiments): 1 µM (≈ 1.2 µg/mL) | MIC ([7]; S.pullorum C7913, MHB, about 1 × 10^5 CFU/mL, 37 °C, three independent experiments): 1 µM (≈ 1.2 µg/mL) | MIC ([8]; P. auruginosa 27853, MHB, about 1 × 10^5 CFU/mL, 37 °C, 24 h, three independent experiments): 2 µM (≈ 2.41 µg/mL) | MIC ([9]; S.aureus 29213, MHB, about 1 × 10^5 CFU/mL, 37 °C, 24 h, three independent experiments): 64 µM (≈ 77 µg/mL) | MIC ([10]; E. coli 25922, MHB, about 1 × 10^5 CFU/mL, 37 °C, 24 h, 0.25-128 μM, three independent experiments): 2 µM (≈ 2.41 µg/mL)

CC(C)(O/N=C(\C(=O)N[C@@H]1C(=O)N2C(C(=O)[O-])=C(C[n+]3ccccc3)CS[C@H]12)c1csc(N)n1)C(=O)O [Ceftazidime]
geometric mean MIC [1]: 1.12 µM | MIC [2, 13]: 16 µM (≈ 8.75 µg/mL) | MIC ([3]; Escherichia coli, K88, 24 h): 1 µM (≈ 0.547 µg/mL) | MIC [4, 14]: 16 µM (≈ 8.75 µg/mL) | MIC ([5]; Escherichia coli, K99, 24 h): 0.5 µM (≈ 0.273 µg/mL) | MIC ([6]; Escherichia coli, UB1005, 24 h): 1 µM (≈ 0.547 µg/mL) | MIC ([7]; Salmonella enterica, PULLORUM): 1 µM (≈ 0.547 µg/mL) | MIC [8, 15]: 2 µM (≈ 1.09 µg/mL) | MIC [9, 16]: 16 µM (≈ 8.75 µg/mL) | MIC [10, 17]: 2 µM (≈ 1.09 µg/mL)

Source: publication PMC6718988, “Bioactivity and Bactericidal Mechanism of Histidine-Rich β-Hairpin Peptide Against Gram-Negative Bacteria” (International Journal of Molecular Sciences, 2019)
